# Read-outs that look alike come from different tables or passages of the source.
# Tests used:
# [1] = tested on: mouse carcinoma of the colon cells colon 26; assay: Evaluation of cytotoxity of synthesized derivatives by the MTT method (Example 8); assay type: cell-based; details: for IC50: Mus musculus
# Protocol: (§1) Antitumor activity of the synthesized derivatives against various cancer cells was measured by the MTT method. The cancer cells used were mouse carcinoma of the colon cells colon 26 (Gan Kenkyu-sho, Gan Kenkyu-kai) and mouse leukemia cells P388 (Dai-Nippon Seiyaku), and the culture medium contained 10 % fetal calf serum. Each cells were placed in each well of 96 well microplate n an amount of […]/50 µL/well and 50 µL of a test compound aqueous solution in each concentration was added. After incubating at 37 °C for 3 days, the number of survival cells was measured by the MTT method, and a dose-reaction curve was made. Thereby, the concentration of each test compound inhibiting multiplication at a rate of 50 % (IC50) was calculated.
# [2] = tested on: mouse leukemia cells P388; assay: as above; assay type: cell-based; details: for IC50: Mus musculus, read-out: P388 IC50[ng/mL]
# Protocol: as §1
# [3] = tested on: human carcinoma of the colon cells HCT-116; assay: Anticancer effect in vivo against HCT 116 (Example 9 B); parameters: species or system mouse; details: 5 [mg/kg]×3 (i.p.), 7,11,15th days, Balb/c nu/nu mice
# Protocol: (§2) • (A) Evaluationin vivo using mouse carcinoma of the colon cells colon 26 CDFI mice (female : 4 weks age) were bought, and colon 26 subcultured in the subcutaneous tissue of the mouse was taken out, and cut into small pieces by a scissors. The cancer cells were transplanted into subcutaneous tisue of CDFI mice by a trucker. The day was assigned 0 day, and the tumor was measured by a slide caliper after 7 days. The volume of the tumor was calculated, and divided into groups (each group : n = 4). The text compound was dissolved in dimethylsulfoxide, and diluted with 5 % Tween 80- saline aqueous solution. […] The administration was carried out after 7 days, after 11 days and after 15 days or after 7 days and after 8 days from the transplantation at a rate of once per one day. 21st day from the transplantation, the volume of tumor was measured and the volume of tumor and the inhibition against tumor multiplication rate (I.R.) were calculated. The volume of tumor was calculated by the following formula. (Tumore Volume [mm)^3 (]= Minor Axis [mm])^2 × Major Axis [mm] × (1/2) [formula] • The inhibition against tumor multiplication rate (I.R.) was calculated by the following formula. I.R. [%] = {1- (Average Tumor Volume of Administration Group / Average Tumor Volume of Control Group)) × 100 [formula] • (B) Evaluation in vivo using human carcinoma of the colon cells HCT-116 Balb/c nu/nu mice (female : 5 weks age) were bought, and HCT-116 (Dainippon Seiyaku) subcultured in the subcutaneous tissue of the mouse was taken out, and cut into small pieces by a scissors. The cancer cells were transplanted into subcutaneous tissue of […] mice by a trucker. The day was assigned 0 day, and the tumor was measured by a slide caliper after 7 days. The volume of the tumor was calculated, and divided into groups (each group : n = 2). The text compound was dissolved in dimethylsulfoxide, and diluted with 5 % Tween 80- saline aqueous solution. […] The administration was carried out after 7 days, after 11 days and after 15 days from the transplantation at a rate of once per one day. 21st day from the transplantation, the volume of tumor was measured and the volume of tumor and the inhibition against tumor multiplication rate (I.R.) were calculated by the above formulas.
# [4] = tested on: Human carcinoma of the colon cell strain HCT-116; assay: Tertiary culture using test human cancer, killed cells by MTT method; assay type: cell-based; details: incubated 3 days
# Protocol: Tertiary cultures were carried out using a human carcinoma of the colon tissue in stage 2b. The tertiary cultures were carried out according to the reported method (Int.J.Cancer Res., 82, 607-612 (1991), Gan to Kagakuryoho, 18, 239-243 (1991), Gan to Kagakuryoho, 19, 743-748 (1992)). The extracted tissue of carninoma of the colon was cut into square pieces having a side of about 2 mm, and incubated in a RPMI- 1640 medium containing 10 % fetal calf serum under 5 % CO2 at 37 °C for 3 days. Existing anticancer agents or acetylgliotoxin were diluted and added, and further incubated for 3 days. Then, the rate of killed cells was determined by the MTT method. The tertiary cultures using the test human cancer were carried out as follows: Human carcinoma of the colon cell strain HCT-116 was transplanted into the subcutaneous tissue of a nude mouse (Balb nu/nu) to induce tumor. The cancer tissue was extracted from the tumor-induced portion, and cut into square pieces having a side of 2 mm. The evaluation of the existing anticancer agents and acetylyliotoxin was earried out according to the aforementioned method.
# [5] = tested on: mouse carcinoma of the colon cells colon 26; assay: Anticancer effect in vivo against colon 26 (Example 9 A); details: CDFI mice
# Protocol: as §2
# [6] = 72 h, colon 26, 3 days, MTT, read-out: colon 26 IC 50
# [7] = 10 [mg/kg]×2 (i.v.), 7, 14th days
# [8] = 2.5[mg/kg]×3 (i.p.), 7,11,15th days
# [9] = 5 [mg/kg]×3 (i.p.), 7,11,15th days
# [10] = 10 [mg/kg]×2 (i.p.), 7,8th days
smiles,measurement,setting,value
"CC(=O)Oc1cccc2c1N1C(=O)[C@]3(CO)SS[C@]1(C2)C(=O)N3C [Compound of Example 5, (3 S, 10aR)―6―acetoxy―2,3―dihydro―3―(hydroxymethyl)― 2―methyl―10H―3,10a―epidithiopyrazino[1,2―a]indole―1, 4―dione]",IC50,[1]; [6],74 ng/mL
same,IC50,"[2]; 72 h, P388, 3 days, MTT",13 ng/mL
"[NH2][Pt]([NH2])([Cl])[Cl] [CDDP, Cisplatin, reference compound]",I.R. (21st day),[3],15.6%
same,I.R.Max,[3],47.5%
same,I. R. (%),[4]; conc. 25 ug/mL,6%
"CN1C(=O)[C@]23CC4=CC=C[C@H](O)[C@H]4N2C(=O)[C@@]1(CO)SS3 [Gliotoxin, gliotoxin]",I. R. (%),[4]; conc. 12.5 ug/mL,28%
same,I. R. (%),[4]; conc. 25 ug/mL,66%
"COc1cccc2c1C(=O)c1c(O)c3c(c(O)c1C2=O)C[C@@](O)(C(=O)CO)C[C@@H]3O[C@H]1C[C@H](N)[C@H](O)[C@H](C)O1 [Adriamycin, reference compound]",I.R. (21st day),[5]; [7],38.9%
same,I.R.Max,[5]; [7],38.9%
same,I. R. (%),[4]; conc. 6 ug/mL,0%
CC[C@]1(O)C[C@@H]2CN(CCc3c([nH]c4ccccc34)[C@@](C(=O)OC)(c3cc4c(cc3OC)N(C)[C@H]3[C@@](O)(C(=O)OC)[C@H](OC(C)=O)[C@]5(CC)C=CCN6CC[C@]43[C@@H]65)C2)C1 [Vinblastine],I. R. (%),[4]; conc. 100 ug/mL,20%
"O=c1[nH]cc(F)c(=O)[nH]1 [5-F U, 5-Fluorouracil]",I. R. (%),[4]; conc. 500 ug/mL,38%
"CN1C(=O)[C@]23Cc4cccc(OCC#N)c4N2C(=O)[C@]1(CO)SS3 [Compound of Example 6, (3S, 10aR)―6―(cyanomethoxy)―2,3―dihydro―3― (hydroxymethyl)―2―methyl―10H-3,10a―a― epidithiopyrazino[1,2―a]indole―1,4―dione]",colon 26 IC 50,"[1]; colon 26, 3 days, MTT",0.07 µg/mL
same,P388 IC50[ng/mL],"[2]; P388, 3 days, MTT",5.8 ng/mL
"CO[C@@]12[C@H](COC(N)=O)C3=C(C(=O)C(C)=C(N)C3=O)N1C[C@@H]1N[C@@H]12 [M M C, Mitomycin C]",I. R. (%),[4]; conc. 15 ug/mL,34%
"CN1C(=O)[C@]23Cc4cccc(O)c4N2C(=O)[C@]1(CO)SS3 [Compound of Example 4, (3S, 10aR)―2,3―dihydro―6―hydroxy―3―(hydroxymethyl)― 2―methyl―10H―3,10a―epidithiopyrazino[1,2―a]indole― 1,4―dione]",IC50,"[1]; Colon 26, 72 h, read-out: colon 26 IC 50 [ng/mL]",110 ng/mL
same,IC50,"[2]; P388, 72 h",21 ng/mL
same,I.R. (21st day),[5]; [8],40.1%
same,I.R.Max,[5]; [8],54.5%
same,I.R. (21st day),[5]; [9],52.9%
same,I.R.Max,[5]; [9],58.9%
same,I.R. (21st day),[5]; [10],43.5%
same,I.R.Max,[5]; [10],79.8%
same,I.R. (21st day),[3],63.8%
same,I.R.Max,[3],66.5%
"CN1C(=O)[C@]23Cc4ccccc4N2C(=O)[C@]1(CO)SS3 [Compound of Example 3, (3S, 10aR)―2,3-dihydro―3―(hydroxymethyl)―2― methyl―10H―3,10a―epidithiopyrazino[1,2―a]indole― 1,4―dione]",IC50,[1]; [6],58 ng/mL
same,IC50,"[2]; 72 h, P388, 3 days, MTT",3.2 ng/mL
same,I.R. (21st day),[5]; [8],35.2%
same,I.R.Max,[5]; [8],35.3%
same,I.R. (21st day),[5]; [9],43.7%
same,I.R.Max,[5]; [9],51.6%
"COC(=O)COc1cccc2c1N1C(=O)[C@]3(CO)SS[C@]1(C2)C(=O)N3C [Compound of Example 7, (3S, 10aR)―2,3―dihydro―3― (hydroxymethyl)―6―[(methoxycarbonyl)methyloxy]―2― methyl―10H―3,10a―epidiopyrazino[1,2―a]indole―1,4― dione]",colon 26 IC 50,"[1]; colon 26, 3 days, MTT",0.082 µg/mL
"CC(=O)O[C@H]1C(=O)[C@@]2(C)[C@H]([C@H](OC(=O)c3ccccc3)[C@]3(O)C[C@H](OC(=O)[C@H](O)[C@@H](NC(=O)c4ccccc4)c4ccccc4)C(C)=C1C3(C)C)[C@]1(OC(C)=O)CO[C@@H]1C[C@@H]2O [T A X O L, Taxol]",I. R. (%),[4]; conc. 100 ug/mL,19%

# From patent EP0926242A1, “GLIOTOXIN DERIVATIVES AND ANTICANCER AGENT COMPRISING THE SAME” (priority 1996, dated 1998)
